Data as given in ChEMBL document CHEMBL1201862, “PubChem BioAssay data set” (2004).
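Test compounds were applied to cells in 96-well plates for 48 hours at 5 doses. At the GI50, growth is halved.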 Activity calls are given as the source filed them. Cut-off read from the data, not from the text of the source: active = GI50 up to about 1.1 µM and inactive = higher.

What was measured:
Test in all cases: NCI tumour cell line growth inhibition, 48 h
[1] = tested on: LOX IMVI
[2] = tested on: OVCAR-8
[3] = tested on: CAKI-1
[4] = tested on: HCT-116
[5] = tested on: TK-10
[6] = tested on: EKVX
[7] = tested on: SF-539
[8] = tested on: SNB-75
[9] = tested on: U-251
[10] = tested on: K562
[11] = tested on: MCF7
[12] = tested on: MOLT-4
[13] = tested on: CCRF-CEM
[14] = tested on: NCI-H23
[15] = tested on: SK-MEL-2
[16] = tested on: KM12
[17] = tested on: Malme-3M
[18] = tested on: SN12C
[19] = tested on: T47D
[20] = tested on: NCI-H522

SMILES	GI50 [1]	GI50 [2]	GI50 [3]	GI50 [4]	GI50 [5]	GI50 [6]	GI50 [7]	GI50 [8]	GI50 [9]	GI50 [10]	GI50 [11]	GI50 [12]	GI50 [13]	GI50 [14]	GI50 [15]	GI50 [16]	GI50 [17]	GI50 [18]	GI50 [19]	GI50 [20]
Cc1ccc2[nH]c(=O)c(-c3cnc(O)nn3)c(O)c2c1	> 100 µM (inactive)	> 100 µM (inactive)	55.3 µM (inactive)	32.7 µM (inactive)	> 100 µM (inactive)	3.4 µM (inactive)	> 100 µM (inactive)	> 100 µM (inactive)	> 100 µM (inactive)	1.8 µM (inactive)	36.9 µM (inactive)	5.06 µM (inactive)	> 100 µM (inactive)	86.7 µM (inactive)	45 µM (inactive)	> 100 µM (inactive)	> 100 µM (inactive)	> 100 µM (inactive)	53.2 µM (inactive)	–
COC(=O)/C=C1\C(=O)Nc2ccc(Br)cc21	0.804 µM (active)	2.14 µM (inactive)	1.04 µM (active)	1.36 µM (inactive)	1.56 µM (inactive)	1.77 µM (inactive)	–	1.99 µM (inactive)	2.03 µM (inactive)	1.77 µM (inactive)	1.46 µM (inactive)	0.962 µM (active)	0.296 µM (active)	1.54 µM (inactive)	0.493 µM (active)	2.53 µM (inactive)	2.33 µM (inactive)	1.62 µM (inactive)	2.16 µM (inactive)	0.743 µM (active)
Clc1ccc(-c2nn3c(C45CC6CC(CC(C6)C4)C5)nnc3s2)cc1	> 100 µM (inactive)	–	> 100 µM (inactive)	63.1 µM (inactive)	> 100 µM (inactive)	> 100 µM (inactive)	> 100 µM (inactive)	> 100 µM (inactive)	> 100 µM (inactive)	> 100 µM (inactive)	–	> 100 µM (inactive)	> 100 µM (inactive)	> 100 µM (inactive)	> 100 µM (inactive)	> 100 µM (inactive)	> 100 µM (inactive)	> 100 µM (inactive)	> 100 µM (inactive)	> 100 µM (inactive)
NS(=O)(=O)c1ccc(/N=N/c2ccc(O)c(C(=O)O)c2)cc1 [SALAZOSULFAMIDE]	–	> 100 µM (inactive)	> 100 µM (inactive)	> 100 µM (inactive)	> 100 µM (inactive)	> 100 µM (inactive)	–	69 µM (inactive)	> 100 µM (inactive)	> 100 µM (inactive)	> 100 µM (inactive)	> 100 µM (inactive)	–	> 100 µM (inactive)	20.7 µM (inactive)	> 100 µM (inactive)	52.2 µM (inactive)	> 100 µM (inactive)	> 100 µM (inactive)	82.4 µM (inactive)
O=C(Cn1c(=O)ccn(C2OC(CO)C(O)C2F)c1=O)c1ccc(F)cc1 (stereo not drawn)	> 100 µM (inactive)	> 100 µM (inactive)	> 100 µM (inactive)	> 100 µM (inactive)	> 100 µM (inactive)	> 100 µM (inactive)	> 100 µM (inactive)	82.2 µM (inactive)	> 100 µM (inactive)	> 100 µM (inactive)	> 100 µM (inactive)	> 100 µM (inactive)	> 100 µM (inactive)	> 100 µM (inactive)	–	> 100 µM (inactive)	> 100 µM (inactive)	> 100 µM (inactive)	> 100 µM (inactive)	> 100 µM (inactive)
Cc1oc2nc1C(=O)NCc1nc(cs1)C(=O)N[C@H](C(C)C)c1nc(cs1)C(=O)N[C@H]2C	–	35.2 µM (inactive)	44.9 µM (inactive)	45.8 µM (inactive)	–	> 100 µM (inactive)	42.3 µM (inactive)	95.7 µM (inactive)	> 100 µM (inactive)	54.8 µM (inactive)	82.2 µM (inactive)	81.7 µM (inactive)	> 100 µM (inactive)	> 100 µM (inactive)	–	61.4 µM (inactive)	> 100 µM (inactive)	58.5 µM (inactive)	28.5 µM (inactive)	26.7 µM (inactive)
CC(C)(C)Cc1cc(O)ccc1O	60.3 µM (inactive)	53 µM (inactive)	> 100 µM (inactive)	61.1 µM (inactive)	> 100 µM (inactive)	48.9 µM (inactive)	70.8 µM (inactive)	58.9 µM (inactive)	43.5 µM (inactive)	48.3 µM (inactive)	74.8 µM (inactive)	36.4 µM (inactive)	26.5 µM (inactive)	77.3 µM (inactive)	–	64.9 µM (inactive)	> 100 µM (inactive)	51.3 µM (inactive)	60.5 µM (inactive)	27 µM (inactive)
COCCCN1C(=O)C2c3[nH]c4ccccc4c3C3CCC(C(C)(C)C)CC3C2C1=O (stereo not drawn)	–	35.5 µM (inactive)	29.5 µM (inactive)	19.8 µM (inactive)	59.3 µM (inactive)	34.4 µM (inactive)	27.4 µM (inactive)	47.6 µM (inactive)	17.7 µM (inactive)	> 10 µM (inactive)	20.6 µM (inactive)	24.7 µM (inactive)	22.6 µM (inactive)	27 µM (inactive)	–	20.7 µM (inactive)	–	21.4 µM (inactive)	48.4 µM (inactive)	21.7 µM (inactive)
CC1CCN(C(C)C)P(=S)(Cc2ccccc2)O1 (stereo not drawn)	> 100 µM (inactive)	> 100 µM (inactive)	> 100 µM (inactive)	59.6 µM (inactive)	75 µM (inactive)	75.3 µM (inactive)	> 100 µM (inactive)	–	> 100 µM (inactive)	70.1 µM (inactive)	> 100 µM (inactive)	> 100 µM (inactive)	–	92.9 µM (inactive)	44.3 µM (inactive)	> 100 µM (inactive)	> 100 µM (inactive)	–	11.2 µM (inactive)	–
COC(=O)C1=C2SCc3cccc(c3)CSC3=C(C(=O)OC)SC(=C(S2)S1)S3	–	–	> 100 µM (inactive)	> 100 µM (inactive)	> 100 µM (inactive)	–	–	> 100 µM (inactive)	40.2 µM (inactive)	> 100 µM (inactive)	> 100 µM (inactive)	> 100 µM (inactive)	> 100 µM (inactive)	–	32.7 µM (inactive)	> 100 µM (inactive)	–	65.9 µM (inactive)	> 100 µM (inactive)	–
CN(C)c1ccc(/C=N/NC2=N/C(=C\c3ccco3)C(=O)N2)cc1	> 100 µM (inactive)	> 100 µM (inactive)	> 100 µM (inactive)	> 100 µM (inactive)	> 100 µM (inactive)	> 100 µM (inactive)	> 100 µM (inactive)	> 100 µM (inactive)	> 100 µM (inactive)	> 100 µM (inactive)	–	> 100 µM (inactive)	> 100 µM (inactive)	> 100 µM (inactive)	> 100 µM (inactive)	> 100 µM (inactive)	> 100 µM (inactive)	> 100 µM (inactive)	> 100 µM (inactive)	> 100 µM (inactive)
Clc1ccc(/C=C/c2nc(-c3ccccc3)cn3c2nc2ccccc23)cc1Cl	59.8 µM (inactive)	–	–	27.7 µM (inactive)	56.6 µM (inactive)	40.3 µM (inactive)	> 100 µM (inactive)	–	42 µM (inactive)	43.6 µM (inactive)	34.8 µM (inactive)	46.9 µM (inactive)	20.1 µM (inactive)	31.2 µM (inactive)	> 100 µM (inactive)	31.4 µM (inactive)	–	38.1 µM (inactive)	41.7 µM (inactive)	–
CC(C)N1[C@@H]2CCCC[C@H]2N(C(C)C)[PH]1=O	–	> 100 µM (inactive)	> 100 µM (inactive)	> 100 µM (inactive)	> 100 µM (inactive)	> 100 µM (inactive)	> 100 µM (inactive)	> 100 µM (inactive)	–	> 100 µM (inactive)	> 100 µM (inactive)	> 100 µM (inactive)	> 100 µM (inactive)	> 100 µM (inactive)	–	> 100 µM (inactive)	–	> 100 µM (inactive)	> 100 µM (inactive)	> 100 µM (inactive)
CN1CCN(Cc2ccccc2)CC1CC#N (stereo not drawn)	> 100 µM (inactive)	> 100 µM (inactive)	> 100 µM (inactive)	> 100 µM (inactive)	> 100 µM (inactive)	> 100 µM (inactive)	> 100 µM (inactive)	> 100 µM (inactive)	> 100 µM (inactive)	> 100 µM (inactive)	> 100 µM (inactive)	> 100 µM (inactive)	> 100 µM (inactive)	> 100 µM (inactive)	–	> 100 µM (inactive)	> 100 µM (inactive)	> 100 µM (inactive)	> 100 µM (inactive)	–
Cc1oc2c(cc(O)c3ccccc32)c2cccc1-2	> 100 µM (inactive)	> 100 µM (inactive)	> 100 µM (inactive)	> 100 µM (inactive)	> 100 µM (inactive)	> 100 µM (inactive)	> 100 µM (inactive)	> 100 µM (inactive)	> 100 µM (inactive)	–	> 100 µM (inactive)	> 100 µM (inactive)	> 100 µM (inactive)	> 100 µM (inactive)	–	> 100 µM (inactive)	> 100 µM (inactive)	> 100 µM (inactive)	> 100 µM (inactive)	–
CC(=O)OC1CC[C@]2(C)C3CC[C@@]4(C)C(CCC4[C@H](C)CCCC(C)C)[C@@H]3CCC2(Br)C1 (stereo partly drawn)	11.6 µM (inactive)	10.8 µM (inactive)	9.1 µM (inactive)	9.29 µM (inactive)	12.8 µM (inactive)	> 50 µM (inactive)	9.18 µM (inactive)	> 50 µM (inactive)	17.9 µM (inactive)	15.5 µM (inactive)	10.5 µM (inactive)	9.98 µM (inactive)	10.2 µM (inactive)	13 µM (inactive)	–	21.4 µM (inactive)	10.9 µM (inactive)	22.5 µM (inactive)	14.1 µM (inactive)	10.3 µM (inactive)
